Results on three compounds are retold here after US20230357272A1, “OCTAHYDROPYRAZINODIAZANAPHTHYRIDINE DIONE COMPOUNDS” (MEDSHINE DISCOVERY INC., priority 2020, published 2023).

The test system of one assay is NCI-H358 cells. Kind of assay: Anti-proliferation experiment of H358 cells (CellTiter-Glo). In kind it is cell-based. Conditions: Homo sapiens, 120 h, 5 days. How it is done:
RPMI-1640 culture medium, penicillin/streptomycin antibiotics purchased from Wisent, and fetal bovine serum purchased from Biosera. CellTiter-Glo (chemiluminescence detection reagent for cell viability) reagent purchased from Promega. NCI-H358 cell line purchased from the Cell Bank of the Chinese Academy of Sciences. Nivo multi-label analyzer (PerkinElmer).
NCI-H358 cells were seeded in a white 96-well plate with 80 μL of cell suspension per well, which contained 4000 NCI-H358 cells. The cell plate was incubated overnight in a carbon dioxide incubator.
(§1) The compounds to be tested were diluted 3-fold with a row gun to the ninth concentration, that is, from 2 mM to 304 nM, and a double-duplication experiment was set up. 78 μL of culture medium was added to a middle plate, and then 2 μL of gradient diluted compound per well was transferred to the middle plate according to the corresponding position. After being thoroughly mixed, 20 μL per well was transferred to the cell plate. The concentration range of the compound transferred to the cell plate was 10 μM to 1.52 nM. The cell plate was placed in the carbon dioxide incubator for 5 days. Another cell plate was prepared, and the signal value was read as the maximum value (Max value in the equation below) on the day of administration to participate in data analysis. 25 μL of cell viability chemiluminescence detection reagent was added to each well of the cell plate, and incubated at room temperature for 10 minutes to stabilize the luminescence signal. A multi-label analyzer was used for reading.
25 μL of cell viability chemiluminescence detection reagent was added to each well of the cell plate, and incubated at room temperature for 10 minutes to stabilize the luminescence signal. A multi-label analyzer was used for reading.
Using the equation (Sample−Min)/(Max−Min)*100% to convert the raw data into inhibition rate, and the value of IC50 might be obtained by curve fitting with four parameters (obtained by “log (inhibitor) vs. response—Variable slope” mode in GraphPad Prism). Table 1 provides the inhibitory activity of the compounds of the present disclosure on the proliferation of NCI-H358 cells.

In a further assay the test system is MIA-PA-CA-2 cells. Kind of assay: Anti-proliferation experiment of MIA-PA-CA-2 cells (CellTiter-Glo). In kind it is cell-based. Conditions: Homo sapiens, MIA PaCa-2, 72 h, 3 days. How it is done: DMEM culture medium, fetal bovine serum purchased from Biosera, and horse serum purchased from Gibco. CellTiter-Glo (chemiluminescence detection reagent for cell viability) reagent purchased from Promega. MIA-PA-CA-2 cell line purchased from Nanjing CoBioer Biotechnology Co., Ltd. EnVision multi-label analyzer (PerkinElmer).
MIA-PA-CA-2 cells were seeded in a white 96-well plate with 80 μL of cell suspension per well, which contained 1000 MIA-PA-CA-2 cells. The cell plate was incubated overnight in a carbon dioxide incubator.
as §1, with “diluted 5-fold” for “diluted 3-fold”, “the eighth” for “the ninth”, “to 26” for “to 304”, “to 0.13” for “to 1.52”, “for 3” for “for 5”
Using the equation (Sample−Min)/(Max−Min)*100% to convert the raw data into inhibition rate, and the value of IC50 might be obtained by curve fitting with four parameters (obtained by “log (inhibitor)/response—Variable scope” mode in GraphPad Prism software). Table 2 provides the inhibitory activity of the compounds of the present disclosure on the proliferation of MIA-PA-CA-2 cells.
A general note: Cellular ATP, detected with luciferase, serves as a proxy for viable cell number.

For orientation: IC50 means the concentration needed to halve the response being measured. A higher IC50 goes with lower potency. For `C=CC(=O)N1CCN2c3c(c(=O)n(-c4c(C(C)C)ncnc4C(C)C)c4c(=O)n(-c5c(N)c(Cl)cc(Cl)c5F)c(C(F)(F)F)cc34)OCC[C@H]2C1` [Compound 4], the figures for the IC50 in the assay on NCI-H358 cells and in the assay with MIA-PA-CA-2 cells were 0.9 nM and 1 nM, respectively.
The like results for `C=CC(=O)N1CCN2c3c(c(=O)n(-c4c(CC)ncnc4CC)c4c(=O)n(-c5c(N)c(Cl)cc(Cl)c5F)c(C(F)(F)F)cc34)OCC[C@H]2C1` [Compound 5] were, in that order, 4 nM and 5 nM.
Consider `C=CC(=O)N1CCN2c3c(c(=O)n(-c4c(CC)cncc4CC)c4c(=O)n(-c5c(N)c(Cl)cc(Cl)c5F)c(C(F)(F)F)cc34)OCC[C@H]2C1` [Compound 6], for which the figures for the IC50 in the assay with NCI-H358 cells and in the assay with MIA-PA-CA-2 cells were 2 nM and 4 nM, respectively.
